# Test results as given in article PMC8389907 (Journal of Medicinal Chemistry, 2021).
# Like-named read-outs stand apart in the source and are kept apart here.
# Legend:
# DU145 cells [1] = experiment: MTT cell viability assay, DU145; format: cell-based; details: Homo sapiens, DU-145
# Description: (§1) The cell lines DU145 (HTB-81, human prostate carcinoma), PC3 (CRL-1435, human prostate adenocarcinoma), MCF7 (HTB-22, human breast adenocarcinoma), MDA-MB231 (HTB-26, human breast adenocarcinoma), and HCT116 (CCL-247, human colorectal carcinoma) were obtained from ATCC (American Type Culture Collection, Manassas, VA, USA); WH1 human fibroblasts were kindly provided by Dr. Guven.[51] All the cells were maintained under standard culture conditions (37 °C; 5% CO2) in the RMPI1640 medium (PC3, MCF7, and MDA-MB231 cells), while DU145 and HCT116 cells were in the DMEM and Iscove’s medium (WH1 cells) supplemented with 10% fetal calf serum, 1% glutamine, and 1% antibiotics mixture; for HCT116 and DU145 cells, 1% sodium pyruvate and 1% non-essential amino acids were also added to the culture medium.
# (§2) The 3-(4,5-dimethylthiazol-2-yl)-2,5-diphenyltetrazolium bromide (MTT) assay was performed on all the cell lines tested as previously described[52] with minor modifications. Briefly, according to the growth profiles previously defined for each cell line, adequate numbers of cells were plated in each well of a 96-well plate in 0.1 mL of complete culture medium. Cells were allowed to attach for 24 h before the treatment at 37 °C for 72 h with the compounds at concentrations ranging between 0.1 and 75 μM, bringing the final volume to 0.2 mL/well. Each experiment included eight replications per concentration tested; control samples were run with 0.2% DMSO. At the end of the incubation period, MTT (0.05 mL of a 2 mg/mL stock solution in PBS) was added to each well for 3 h at 37 °C. Cell supernatants were then carefully removed, the blue formazan crystals formed through MTT reduction by metabolically active cells were dissolved in 0.120 mL of DMSO, and the corresponding optical densities were measured at 570 nm using a Universal Microplate Reader EL800 (Bio-Tek, Winooski, VT).
# (§3) IC50 values were estimated from the resulting concentration–response curves by nonlinear regression analysis using GraphPad Prism software, v. 5.0 (GraphPad, San Diego, CA, USA). Differences between IC50 values were evaluated statistically by analysis of variance with a Bonferroni post-test for multiple comparisons.
# PC3 cells [2] = experiment: MTT cell viability assay, PC3; format: cell-based; details: Homo sapiens, PC-3; 72 h treatment, MTT; read-out: IC50 PC3
# Description: as §1, §2, §3
# MCF7 cells = experiment: MTT cell viability assay, MCF7; format: cell-based; details: Homo sapiens, 72 h treatment, MTT, read-out: IC50 MCF7
# Description: as §1, §2, §3
# MDA-MB231 cells = experiment: MTT cell viability assay, MDA-MB231; format: cell-based; details: Homo sapiens, MDA-MB-231; 72 h treatment, MTT; read-out: IC50 MDA-MB231
# Description: as §1, §2, §3
# HCT116 cells = experiment: MTT cell viability assay, HCT116; format: cell-based; details: Homo sapiens, HCT-116
# Description: as §1, §2, §3
# MCF7/ADR cells = experiment: MTT cell viability assay, DOX-resistant MCF7/ADR; format: cell-based, human; details: for IC50: Homo sapiens, NCI/ADR-RES, 72 h treatment, MTT; for R.I. (resistance index): MCF7/ADR vs MCF7
# Description: as §2, §3
# P. aeruginosa PAO1 [3] = experiment: Minimum inhibitory concentration, broth dilution; format: cell-based; details: Pseudomonas aeruginosa; 24 h incubation at 37 °C, strain PAO1
# Description: P. aeruginosa PAO1 was chosen as a model microorganism[53] and was grown overnight in a Luria Bertani (LB) medium at 37 °C on an orbital shaker at 200 rpm. Minimum inhibitory concentrations (MICs) of quinolone and quinolone derivatives were determined against P. aeruginosa PAO1 by a broth dilution method. Overnight cultures were diluted 100-fold to give a cellular concentration of 10^7 CFU/mL. […] The assays were performed at least three times.
# WH1 human fibroblasts = experiment: MTT cell viability assay, WH1 fibroblasts; format: cell-based; details: Fibroblast, 72 h treatment
# Description: as §1, §2, §3
# HBL100 cells = experiment: MTT cell viability assay, non-tumorigenic HBL100; format: cell-based; details: Homo sapiens, HBL-100, 72 h treatment
# Description: as §2, §3
# P. aeruginosa PAO1 [4] = experiment: Antimicrobial photo-inactivation test, P. aeruginosa; format: cell-based, Pseudomonas aeruginosa; details: 10 μM, 10 min dark incubation, 405 ± 10 nm, 20 J/cm^2
# Description: (§4) Upon the overnight growth of P. aeruginosa PAO1 and S. aureus ATCC6538P (methicillin susceptible S. aureus, MSSA), cultures were diluted in phosphate buffer (PBS–KH2PO4/K2HPO4, 10 mM, pH 7.4) to reach a concentration of ∼10^6 CFU/mL. Compound 7c was added to a cell suspension at a final concentration of 10 μM. Cells were incubated in the dark for 10 min and then irradiated under light at […] (20 J/cm^2) or incubated in the dark as a control. Soon after irradiation, the bacterial concentration was evaluated by the viability count technique. Briefly, an aliquot of each sample was 10-fold serially diluted in PBS and a volume of 10 μL of each diluted and undiluted sample was inoculated on LB agar. After overnight incubation at 37 °C, the corresponding cellular concentration was calculated and expressed as CFU/mL.
# S. aureus ATCC 6538P = experiment: Antimicrobial photo-inactivation test, S. aureus; format: cell-based, Staphylococcus aureus; details: 10 μM, 10 min dark incubation, blue light 20 J/cm^2
# Description: as §4
# DU145 cells [5] = experiment: MTT assay with 1 h irradiation, DU145; format: cell-based, human; details: 24 h treatment, 1 h white or blue light, 48 h drug-free medium
# Description: (§5) To evaluate the contribution of NO release on cell viability, the MTT assay was performed on DU145 and PC3 cells following treatment with 7b and 7c with 1 h irradiation and 48 h incubation in a drug-free medium.
# as §3
# PC3 cells [6] = experiment: MTT assay with 1 h irradiation, PC3; format: cell-based, human; details: 24 h treatment, 1 h white or blue light, 48 h drug-free medium
# Description: as §5, §3
# [7] = 72 h treatment, MTT, read-out: IC50 DU145
# [8] = 72 h treatment, MTT, read-out: IC50 HCT116
Compound,IC50 (DU145 cells [1]; [7]) [µM],IC50 (PC3 cells [2]) [µM],IC50 (MCF7 cells) [µM],IC50 (MDA-MB231 cells) [µM],IC50 (HCT116 cells; [8]) [µM],IC50 (MCF7/ADR cells) [µM],MIC (P. aeruginosa PAO1 [3]) [µg/mL],"IC50 (DU145 cells [1]; supplement csv, unit inferred, read-out: DU145 IC50) [µM]","IC50 (HCT116 cells; supplement csv, unit inferred, read-out: HCT116 IC50) [µM]",R.I. (resistance index) (MCF7/ADR cells),IC50 (WH1 human fibroblasts) [µM],IC50 (HBL100 cells) [µM],antimicrobial activity upon blue light irradiation (P. aeruginosa PAO1 [4]),decrease in viable S. aureus with respect to the dark incubated control (S. aureus ATCC 6538P) [log unit],"IC50, irradiated vs kept in the dark, DU145 (DU145 cells [5])","IC50, irradiated vs kept in the dark, PC3 (PC3 cells [6])"
"O=C(O)c1cn(C2CC2)c2cc(N3CCNCC3)c(F)cc2c1=O [Cip, Ciprofloxacin, reference compound]",24.9 ± 0.8,33.9 ± 2.9,8.85 ± 0.09,19.9 ± 3.6,31.5 ± 1.5,19.1 ± 0.5,1.82 ± 1.19,–,–,–,–,–,–,–,–,–
"CCn1cc(C(=O)O)c(=O)c2cc(F)c(N3CCN(CCNc4ccc([N+](=O)[O-])c(C(F)(F)F)c4)CC3)cc21 [Compound 7c, 1-Ethyl-6-fluoro-7-(4-(2-((4-nitro-3-(trifluoromethyl)phenyl)amino)ethyl)piperazin-1-yl)-4-oxo-1,4-dihydroquinoline-3-carboxylic Acid]",–,2.33,2.27,1.52,–,18.3 ± 1.4,–,1.57 ± 0.59,2.15 ± 0.39,8.1,3.51 ± 0.4,11.1 ± 0.2,did not show any antimicrobial activity,2,no differences in IC50 values,no differences in IC50 values
"CCn1cc(C(=O)O)c(=O)c2cc(F)c(N3CCNCC3)cc21 [Nor, Norfloxacin, reference compound]",12 ± 0.6,33.6 ± 3,19.4 ± 0.7,14.9 ± 2.7,12.5 ± 2.6,20.1 ± 1.4,4.16 ± 1.8,–,–,1.0,14.1 ± 2.1,12.4 ± 0.8,–,–,–,–
